Like-named read-outs stand apart in the source and are kept apart here.
Assays:
[1] = topical corticosteroid, Group III; cited from earlier work
[2] = tested on: Procollagen I (PINP); assay: PINP in suction blister fluid from skin pretreated with betamethasone valerate, then treated with test formulations; type: in vivo, human; conditions: suction blister fluid after 14 days treatment
Source text: Six healthy male volunteers aged 40-65 years. Criteria for exclusion are: treatment with systemic or topical glucocorticoids, ongoing serious infections, immunosuppression.
TRIAC and DHEA were obtained from Sigma. They were mixed with Essex cream (Merck) to obtain 4 different study formulations: • A. 0.03% TRIAC in Essex cream • B. 0.03% TRIAC and 2% DHEA in Essex cream • C. Essex cream alone. • D. 2% DHEA in Essex cream
A proof-of-concept, single blinded, open prospective study comparing, TRIAC, DHEA and the combination of the two as compared with non-active treatment on short-term glucocorticoid-induced skin atrophy.
The test area was normal looking abdominal skin in 6 male volunteers. Four different skin areas of 10×10 cm were marked with a permanent marker pen.
All areas were pretreated twice daily with betametasone valerate (Betnovate, GSK) 0.5 gr twice daily for 21 days. Then each test area was treated, with 0.5 gr twice daily of one of the test formulations, for 14 days.
Suction blisters were induced with a disposable device (Dermovac, Ventipress, Lappeeranta, Finland) placed on the test areas and connected to a vacuum pump with a vacuum of approximately 60 mm Hg. Each device produces five suction blisters within approximately one hour. The resulting fluid was collected, using a syringe, and then combined and frozen at −70° C. […]

[3] = tested on: post-menopausal women; conditions: DHEA 1% formulation, topical, facial and hand skin, 4 months, versus vehicle; cited from earlier work
[4] = tested on: elderly people; conditions: oral route; cited from earlier work
[5] = Ames' test; type: cell-based
Source text: (§1) The genotoxic potential of TRIAC has been investigated in the Ames' test and in in vitro chromosome aberration assay in cultured human peripheral lymphocytes.

[6] = tested on: cultured human peripheral lymphocytes; assay: In vitro chromosome aberration assay; type: cell-based
Source text: as §1

[7] = tested on: mice; conditions: cited from earlier work
[8] = tested on: psoriasis; conditions: TRIAC 0.1% ointment; cited from earlier work
[9] = tested on: procollagen I and III; conditions: cited from earlier work
[10] = tested on: patients with skin atrophy on the dorsum of their hands; conditions: cited from earlier work
[11] = tested on: thyroid hormone levels; conditions: cited from earlier work
[12] = tested on: metabolic effects; conditions: cited from earlier work
[13] = tested on: rats; conditions: cited from earlier work
[14] = tested on: rats; conditions: rat, in vivo, 2000 mg/kg; cited from earlier work

CCCCC(=O)O[C@]1(C(=O)CO)[C@@H](C)C[C@H]2[C@@H]3CCC4=CC(=O)C=C[C@]4(C)[C@@]3(F)[C@@H](O)C[C@@]21C [Betamethasone valerate]
potency relative to hydrocortisone [1]: 50-100 times

C[C@]12CC[C@H](O)CC1=CC[C@@H]1[C@@H]2CC[C@]2(C)C(=O)CC[C@@H]12 [DHEA, dehydroepiandrosterone]
PINP concentration, comparison between treatments [2]: only slightly better than treatment with placebo | effect on skin aging features [3]: improved skin brightness and counteract papery appearance of the skin and epidermal atrophy | effect on skin conditions [4]: positive effect

O=C(O)Cc1cc(I)c(Oc2ccc(O)c(I)c2)c(I)c1 [TRIAC, triiodothyroacetic acid]
genotoxic potential [5]: no genotoxic potential | genotoxic potential [6]: no genotoxic potential | skin thickness in mice pretreated with betamethasone valerate ([7]; TRIAC alone, 0.03%): could restore skin thickness | effect on skin atrophy induced by potent topical glucocorticoids ([7]; topical administration, mice): prevents skin atrophy | skin thickness of normal skin ([7]; topical, mice): increase skin thickness | side effects ([7]; topical, compared with vitamin A and D derivatives): no side effects were seen | effect on psoriasis in comparison with placebo [8]: no statistically significant effects | safety of topical treatment [8]: safe | procollagen I and III compared to placebo ([9]; TRIAC 0.03% and 0.1% cream, both groups, 7 days after start of treatment, pre-treatment with topical betamethasone 17-valerate): statistically significant increase | PINP synthesis compared to placebo ([9]; TRIAC 0.03% cream, healthy volunteers, skin pretreated with betamethasone valerate): significantly more effective | skin thickness in epidermis and dermis ([10]; TRIAC 0.1% cream, after 8 weeks of treatment): significantly higher | effect on glucocorticoid-induced skin atrophy ([10]; topical, patients treated with potent topical corticosteroids for hand eczema): appears to reverse glucocorticoid-induced skin atrophy | effects on thyroid hormone levels ([11]; all 3 clinical studies, after 8 weeks treatment): no significant effects | other blood analysis ([11]; clinical studies (15-16)): normal levels | dose necessary to obtain similar metabolic effects, relative to T3 ([12]; human, in vivo): greater than 15 times | dose necessary to obtain similar metabolic effects, relative to T4 ([12]; human, in vivo): > 10 times | tachycardia compared with T4 or T3 ([12]; human, in vivo): does not evoke tachycardia as effectively as T4 or T3 | tolerability ([12]; oral administration, daily doses of 3.4 mg, up to 3 weeks): well tolerated | lowest lethal dose ([13]; rat, in vivo, ip): 100 mg/kg | LD50 ([13]; single dose, intraperitoneal, female rats): 295 mg/kg | LD50 ([13]; single dose, intraperitoneal, male rats): 143 mg/kg | no observed effect level (NOEL) ([13]; single dose, intraperitoneal, suspended in 0.8% hydroxyl propyl methylcellulose gel, rats): 46.4 mg/kg | general toxicity and local irritation [14]: neither any clinical signs of general toxicity nor any local irritation
